From US12685726B2, “Sulfoximines as inhibitors of NaV1.8” (Gruenenthal GmbH, priority 2022, dated 2026)

Target: T1, human NaV 1.8 (Homo sapiens, UniProt Q9Y5Y9)
T1 construct: expressed in transfected cells; host or cells: HEK (recombinant cell line)
Assay: Automated whole-cell patch clamp (Qube384) voltage-clamp recordings of sodium currents in HEK-NaV1.8 cell line
Assay type: cell-based
Conditions: read-out: Potency category (human NaV 1.8 IC50)
How it was run: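 HEK cells expressing NaV1.8 with b3, whole-cell automated voltage clamp at room temperature or 19° C.; CsF-based internal, pH 7.4 external. State-dependent (−120 mV, V1/2 4 s, −10 mV test pulses) and 10/20 Hz 40-pulse protocols; ~12 min compound, vehicle-corrected, IC50 by 4-parameter logistic fit.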

T1 sequence (Q9Y5Y9 whole entry): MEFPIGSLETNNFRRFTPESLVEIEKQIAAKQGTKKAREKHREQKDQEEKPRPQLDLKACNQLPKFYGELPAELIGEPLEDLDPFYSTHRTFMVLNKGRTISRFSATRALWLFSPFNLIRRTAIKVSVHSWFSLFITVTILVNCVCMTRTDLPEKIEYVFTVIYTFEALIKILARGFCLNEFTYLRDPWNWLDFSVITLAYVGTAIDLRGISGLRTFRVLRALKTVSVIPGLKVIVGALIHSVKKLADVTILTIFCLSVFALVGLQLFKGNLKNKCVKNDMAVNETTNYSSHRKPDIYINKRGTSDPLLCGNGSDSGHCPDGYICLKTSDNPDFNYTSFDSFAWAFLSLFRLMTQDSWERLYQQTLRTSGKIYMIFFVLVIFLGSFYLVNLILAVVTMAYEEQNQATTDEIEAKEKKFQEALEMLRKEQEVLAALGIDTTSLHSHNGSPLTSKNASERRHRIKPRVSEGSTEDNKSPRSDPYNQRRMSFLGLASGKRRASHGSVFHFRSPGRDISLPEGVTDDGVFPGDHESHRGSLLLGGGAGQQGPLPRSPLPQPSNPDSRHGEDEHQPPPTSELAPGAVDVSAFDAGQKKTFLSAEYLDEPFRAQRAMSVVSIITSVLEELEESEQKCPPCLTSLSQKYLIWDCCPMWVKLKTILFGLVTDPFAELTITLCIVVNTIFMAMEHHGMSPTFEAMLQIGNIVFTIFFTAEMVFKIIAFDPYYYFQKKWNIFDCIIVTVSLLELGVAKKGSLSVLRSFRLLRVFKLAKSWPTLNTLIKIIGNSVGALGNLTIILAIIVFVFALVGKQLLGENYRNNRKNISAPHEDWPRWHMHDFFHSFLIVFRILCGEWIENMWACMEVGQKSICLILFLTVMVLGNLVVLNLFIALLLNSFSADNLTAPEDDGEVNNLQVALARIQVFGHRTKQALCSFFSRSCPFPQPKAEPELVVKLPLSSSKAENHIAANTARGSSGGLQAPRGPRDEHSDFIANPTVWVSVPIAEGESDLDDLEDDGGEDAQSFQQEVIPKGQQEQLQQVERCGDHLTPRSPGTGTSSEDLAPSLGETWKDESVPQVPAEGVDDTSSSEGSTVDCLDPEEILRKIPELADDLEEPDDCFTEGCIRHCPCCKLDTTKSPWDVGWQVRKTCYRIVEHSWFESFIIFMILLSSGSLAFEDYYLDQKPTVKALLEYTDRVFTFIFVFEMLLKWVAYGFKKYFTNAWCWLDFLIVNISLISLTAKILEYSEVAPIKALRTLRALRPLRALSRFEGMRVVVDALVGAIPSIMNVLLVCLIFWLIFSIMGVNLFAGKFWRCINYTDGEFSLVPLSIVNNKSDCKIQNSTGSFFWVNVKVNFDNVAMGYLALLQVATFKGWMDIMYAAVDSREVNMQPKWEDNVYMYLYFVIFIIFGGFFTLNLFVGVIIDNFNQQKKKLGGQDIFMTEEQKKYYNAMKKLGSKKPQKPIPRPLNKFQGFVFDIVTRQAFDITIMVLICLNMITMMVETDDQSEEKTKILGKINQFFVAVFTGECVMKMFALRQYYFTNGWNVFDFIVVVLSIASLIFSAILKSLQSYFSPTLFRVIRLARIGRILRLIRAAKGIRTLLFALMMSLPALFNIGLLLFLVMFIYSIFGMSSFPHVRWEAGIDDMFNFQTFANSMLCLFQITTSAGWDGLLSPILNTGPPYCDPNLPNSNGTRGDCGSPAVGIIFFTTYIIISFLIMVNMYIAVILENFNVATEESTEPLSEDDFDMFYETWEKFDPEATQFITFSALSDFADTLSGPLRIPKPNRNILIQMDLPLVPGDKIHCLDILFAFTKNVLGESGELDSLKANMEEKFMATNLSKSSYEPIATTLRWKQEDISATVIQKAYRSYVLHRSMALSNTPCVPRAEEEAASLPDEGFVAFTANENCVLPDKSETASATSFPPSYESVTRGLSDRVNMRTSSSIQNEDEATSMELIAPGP

Row | SMILES | IC50 [µM]
1 | CC1(Cn2nc(C(C)(C)C)c(C(F)(F)F)c2C(=O)Nc2ccnc(S(C)(=N)=O)c2)CC(F)(F)C1 (single isomer, unassigned) [Example 143b, 3-(Tert-butyl)-1-((3,3-difluoro-1-methylcyclobutyl)methyl)-N-(2-(S-methylsulfonimidoyl)pyridin-4-yl)-4-(trifluoromethyl)-1H-pyrazole-5-carboxamide] | ≤ 0.1
2 | CS(=N)(=O)c1cc(NC(=O)c2c(C(F)(F)F)c(C3CC3)nn2CC2CC3(C2)CC(F)(F)C3)ccn1 (single isomer, unassigned) [Example 27a, 3-cyclopropyl-1-((6,6-difluorospiro[3.3]heptan-2-yl)methyl)-N-(2-(S-methylsulfonimidoyl)pyridin-4-yl)-4-(trifluoromethyl)-1H-pyrazole-5-carboxamide] | ≤ 0.1
3 | CC1(Cn2nc(C3CC3F)c(C(F)(F)F)c2C(=O)Nc2ccnc(S(C)(=N)=O)c2)CC(F)(F)C1 (single isomer, unassigned) [Example 62b, 1-((3,3-Difluoro-1-methylcyclobutyl)methyl)-3-(2-fluorocyclopropyl)-N-(2-(S-methylsulfonimidoyl)pyridin-4-yl)-4-(trifluoromethyl)-1H-pyrazole-5-carboxamide] | ≤ 0.1
4 | CC1(Cn2nc(C3CC4(CC4)C3)c(C(F)(F)F)c2C(=O)Nc2ccnc(S(C)(=N)=O)c2)CC(F)(F)C1 (single isomer, unassigned) [Example 61a, 1-((3,3-Difluoro-1-methylcyclobutyl)methyl)-N-(2-(S-methylsulfonimidoyl)pyridin-4-yl)-3-(spiro[2.3]hexan-5-yl)-4-(trifluoromethyl)-1H-pyrazole-5-carboxamide] | ≤ 0.1
5 | CC1(Cn2nc(C3CC3)c(C(F)(F)F)c2C(=O)Nc2ccnc(S(C)(=N)=O)c2)CCC(F)(F)C1 (single isomer, unassigned) [Example 29b, 3-Cyclopropyl-1-((3,3-difluoro-1-methylcyclopentyl)methyl)-N-(2-(S-methylsulfonimidoyl)pyridin-4-yl)-4-(trifluoromethyl)-1H-pyrazole-5-carboxamide] | ≤ 0.1
6 | CC1(Cn2nc(C3CC3)c(C(F)(F)F)c2C(=O)Nc2cccc(S(C)(=N)=O)c2)CC(F)(F)C1 (single isomer, unassigned) [Example 45a, 3-cyclopropyl-1-((3,3-difluoro-1-methylcyclobutyl)methyl)-N-(3-(S-methylsulfonimidoyl)phenyl)-4-(trifluoromethyl)-1H-pyrazole-5-carboxamide] | ≤ 0.1

The remaining lines, values ahead:

Row | IC50 [µM] | SMILES
7 | ≤ 0.1 | CC1(Cn2nc(C3(F)CC3)c(C(F)(F)F)c2C(=O)Nc2cccc(S(C)(=O)=NC(=O)C3COC3)c2)CC(F)(F)C1 (single isomer, unassigned) [Example 150b, 1-((3,3-Difluoro-1-methylcyclobutyl)methyl)-3-(1-fluorocyclopropyl)-N-(3-(S-methyl-N-(oxetane-3-carbonyl)sulfonimidoyl)phenyl)-4-(trifluoromethyl)-1H-pyrazole-5-carboxamide]
8 | ≤ 0.1 | CCS(=N)(=O)c1cc(NC(=O)c2c(C(F)(F)F)c(C3CC3)nn2CC2(C)CC(F)(F)C2)ccn1 (single isomer, unassigned) [Example 48b, 3-cyclopropyl-1-((3,3-difluoro-1-methylcyclobutyl)methyl)-N-(2-(ethylsulfonimidoyl)pyridin-4-yl)-4-(trifluoromethyl)-1H-pyrazole-5-carboxamide]
9 | ≤ 0.1 | CC1(Cn2nc(C3CCC3)c(C(F)(F)F)c2C(=O)Nc2ccnc(S(C)(=N)=O)c2)CC(F)(F)C1 (single isomer, unassigned) [Example 56a, 3-cyclobutyl-1-((3,3-difluoro-1-methylcyclobutyl)methyl)-N-(2-(S-methylsulfonimidoyl)pyridin-4-yl)-4-(trifluoromethyl)-1H-pyrazole-5-carboxamide]
10 | ≤ 0.1 | CC1(Cn2nc(C34CC(F)(C3)C4)c(C(F)(F)F)c2C(=O)Nc2ccc(F)c(S(C)(=N)=O)c2)CC(F)(F)C1 (single isomer, unassigned) [Example 141b, 1-((3,3-Difluoro-1-methylcyclobutyl)methyl)-N-(4-fluoro-3-(S-methylsulfonimidoyl)phenyl)-3-(3-fluorobicyclo[1.1.1]pentan-1-yl)-4-(trifluoromethyl)-1H-pyrazole-5-carboxamide]
11 | 1 to 10 | CS(=N)(=O)c1cc(NC(=O)c2c(C(F)(F)F)c(C3CC3)nn2CC2CCC23CNC3)ccn1 (single isomer, unassigned) [Example 153d, 1-((2-Azaspiro[3.3]heptan-5-yl)methyl)-3-cyclopropyl-N-(2-(S-methylsulfonimidoyl)pyridin-4-yl)-4-(trifluoromethyl)-1H-pyrazole-5-carboxamide]
12 | ≤ 0.1 | CC1(Cn2nc(C34CC(F)(C3)C4)c(C(F)F)c2C(=O)Nc2ccc(F)c(S(C)(=N)=O)c2)CC(F)(F)C1 (single isomer, unassigned) [Example 138a, 1-((3,3-Difluoro-1-methylcyclobutyl)methyl)-4-(difluoromethyl)-N-(4-fluoro-3-(S-methylsulfonimidoyl)phenyl)-3-(3-fluorobicyclo[1.1.1]pentan-1-yl)-1H-pyrazole-5-carboxamide]
13 | ≤ 0.1 | CC1(Cn2nc(C(C)(F)F)c(C(F)(F)F)c2C(=O)Nc2ccnc(S(C)(=N)=O)c2)CC(F)(F)C1 (single isomer, unassigned) [Example 75a, 1-((3,3-difluoro-1-methylcyclobutyl)methyl)-3-(1,1-difluoroethyl)-N-(2-(S-methylsulfonimidoyl)pyridin-4-yl)-4-(trifluoromethyl)-1H-pyrazole-5-carboxamide]
14 | ≤ 0.1 | CC1(Cn2nc(C3(C(F)F)CC3)c(C(F)(F)F)c2C(=O)Nc2ccnc(S(C)(=N)=O)c2)CC(F)(F)C1 (single isomer, unassigned) [Example 145a, 1-((3,3-Difluoro-1-methylcyclobutyl)methyl)-3-(1-(difluoromethyl)cyclopropyl)-N-(2-(S-methylsulfonimidoyl)pyridin-4-yl)-4-(trifluoromethyl)-1H-pyrazole-5-carboxamide]
